Experimental data from patent US20080261234A1, “Peptides and their use in assays for cardiovascular disease” (priority 2000, published 2008).
Where no end group is shown, it is not given here.

Columns and labels:
[1] = tested on: autoantibodies against oxLDL in serum samples; assay: Peptide EIA: autoantibodies against peptides and peptide-MDA complexes; format: binding, human; design: key to reaction of autoantibodies (mean ±SD): absorbance at 450 nm, blank subtracted; settings: for reaction of autoantibodies (mean ±SD): plate coated with natp63, MDA and MDAp63; for amount of autoantibodies, mean absorbance after subtracting the blank: Patients (n = 20), six forms of p63 peptide antigen; for Reactivity of autoantibodies, absorbance (PEPTIDE EIA): absorbance at 450 nm, serum 1:20; for MDAp63:natp63 ratio: after subtracting the blank
Procedure: Native and MDA-modified peptides were tested always on the same plate. One half of the plate was coated with the native peptide (20 μg/ml) and the other half was coated with the MDA-modified peptide [(20 μg/ml) 100 μl/well in 100 mmol/l bicarbonate buffer (pH 9.5)]. Coated plates were incubated overnight at room temperature (RT) and then washed with an automatic washer (Wellwash 4 MK II, Labsystems Oy) three times with phosphate buffered saline (PBS) containing 0.05% Tween 20. Plates were blocked with PBS containing 1% human serum albumin (HSA) (150 μl/well) for 1 h at RT and washed as above. Serum samples were diluted 1:20 in PBS containing 0.2% HSA and 0.05% Tween 20 and pipetted 100 μl/well. Plates were incubated for 2 h at RT and washed as above. HRP-conjugated anti-human IgG (diluted 1:20 000 in the sample buffer) was added (100 μl) to each well and incubated for 1 h at RT. After washing, colour was developed by adding the peroxidase substrate (tetramethylbenzidine (TMB) as a chromagen, 100 μl/well) and incubating the plates for 30 min at room temperature in the dark. The reaction was stopped with 0.5 mol/l H2SO4 (100 μl/well) and absorbances were measured at 450 nm (Multiskan microplate reader, Labsystems Oy). The results are shown in Table 2 and are expressed as the absorbance measurement obtained for the native and the modified peptides or as the ratio between antibody binding to the native and the modified peptides after subtracting the blank control.
To find out whether autoantibodies react with the peptide, with MDA or both when peptide-MDA complexes are used as antigen, a microtiter plate was coated with natp63, MDA and MDAp63 antigen and the immunoassays performed. MDA antigen was prepared as MDAp63 antigen but without peptide and MDA was diluted for coating in the same way as MDAp63.

[2] = tested on: antibodies of patient samples binding to coated peptide; assay: Inhibition test: increasing concentrations of peptide added to sample diluent in peptide EIA; design: species or system human; settings: inhibitor 100 μg/ml
Procedure: The specificity of cyclic (p244cyc) and the corresponding linear peptide (p244) were tested in inhibition tests by adding increasing concentrations of peptides to sample diluent. P244cyc peptide inhibited with the highest inhibitor concentration (100 μg/ml), the average being 61% of the binding of 8 patient samples (FIG. 2A); 3 samples were inhibited by less than 50%. P244 inhibited with the highest inhibitor concentration (100 μg/ml), the average being 70% of the binding of 24 patient samples (FIG. 2B). 3 samples were inhibited less than 50%. P244 seemed to be more specific than p244cyc peptide. Finally, it was confirmed that the epitope of p244 is similar to p63 by coating plate with p244 and inhibiting the binding of patient samples with p63. P63 inhibited with the highest inhibitor concentration (100 μg/ml), the average being 53% of the binding of 22 patient samples (FIG. 3). 9 samples were inhibited less than 50%.

[3] = tested on: antibodies of patient samples against the peptides; assay: Specificity test: peptide EIA with 0.5 M sodium chloride added to sample diluent; format: binding, human; settings: mean of 20 patient samples
Procedure: The specificity of different antigens was tested by titration of peptides. […] In addition, the specificity of antibodies against cyclic and linear peptides, p244cyc and p244, was tested by adding 0.5 M sodium chloride to sample diluent. The titer of patient samples against p244, p244cyc and p63-MDA was 19%, 38% and 47% lower (mean of 20 patient samples), respectively, when salt was added to sample diluent. It appears that antibodies against p244 have the best specificity.

[4] = tested on: autoantibodies against oxLDL in serum samples; assay: OxLDL EIA with copper-oxidized human LDL as antigen; format: binding; settings: for Reactivity of autoantibodies, absorbance (OxLDL EIA): absorbance at 450 nm
Procedure: Various native and modified peptides, derived from the amino acid sequence of apoB-100 (Chen et al., supra), were tested as antigens suitable for use in EIA. The peptides were modified with MDA to produce similar oxidation specific epitopes as in oxLDL. The results of peptide EIA are compared to the results of oxLDL EIA which was optimized using copper-oxidized LDL as antigen; see Närvänen et al., Free Radical Biology & Medicine, in press.

Compound	reaction of autoantibodies (mean ±SD) ([1]; control samples, n=23)	reaction of autoantibodies (mean ±SD) ([1]; patient samples, n=16)	amount of autoantibodies, mean absorbance after subtracting the blank [1]	titer of patient samples lower when salt was added to sample diluent [3] [%]	further results
O=CCC=O [MDA, Malondialdehyde, reference compound]	0.300±0.019	0.338±0.000			
LSVKAQYKKNKHRHSITNPL [p63, 2, 20 amino acids, 4 lysines]	0.282±0.100	0.222±0.041	0.389—		average inhibition of the binding of patient samples ([2]; 22 patient samples, plate coated with p244, inhibited with p63): 53%; Reactivity of autoantibodies, absorbance (PEPTIDE EIA) ([1]; healthy controls (n = 17)): 0.216 ± 0.142; Reactivity of autoantibodies, absorbance (PEPTIDE EIA) ([1]; patients (n = 19)): 0.159 ± 0.079
MDAp63: p63 modified with MDA (LSVKAQYKKNKHRHSITNPL; also: malondialdehyde (MDA) coupled via primary amines of lysines)	0.533±0.077	0.431±0.040	0.601—	47	Reactivity of autoantibodies, absorbance (PEPTIDE EIA) ([1]; healthy controls (n = 17)): 0.497 ± 0.184; MDAp63:natp63 ratio ([1]; healthy controls (n = 17)): 2.592 ± 0.751; Reactivity of autoantibodies, absorbance (PEPTIDE EIA) ([1]; patients (n = 19)): 0.418 ± 0.141; MDAp63:natp63 ratio ([1]; patients (n = 19)): 2.866 ± 0.924
P63-PEA-MDA: p63 modified with MDA and phosphatidylethanolamine (LSVKAQYKKNKHRHSITNPL; also: modified with MDA and phosphatidylethanolamine) [Peptide P63-PEA-MDA]			0.406—		
P244cyc-MDA: cyclic p63 modified with MDA (CGLSVKAQYKKNKHRHSITNPLGC; also: cyclic (mode not given here), modified with MDA) [Peptide P244cyc-MDA]			0.521—		
natLDL: native human low density lipoprotein, used as antigen					Reactivity of autoantibodies, absorbance (OxLDL EIA) ([4]; healthy controls (n = 17)): 0.351 ± 0.172; Reactivity of autoantibodies, absorbance (OxLDL EIA) ([4]; patients (n = 19)): 0.258 ± 0.170
oxLDL: copper-oxidized low density lipoprotein purified from human plasma, used as antigen					oxLDL:natLDL ratio ([4]; healthy controls (n = 17)): 1.886 ± 0.689; Reactivity of autoantibodies, absorbance (OxLDL EIA) ([4]; healthy controls (n = 17)): 0.591 ± 0.221; oxLDL:natLDL ratio ([4]; patients (n = 19)): 2.535 ± 1.430; Reactivity of autoantibodies, absorbance (OxLDL EIA) ([4]; patients (n = 19)): 0.600 ± 0.287
p244: a linear form of p63, which contains two extra amino acids (glycine and cysteine) at both ends of the peptide (CGLSVKAQYKKNKHRHSITNPLGC)			0.995—	19	average inhibition of the binding of patient samples ([2]; 24 patient samples, p244): 70%
p244cyc: cyclic p244 (CGLSVKAQYKKNKHRHSITNPLGC; also: cyclic (way of cyclisation not given here))			0.734—	38	average inhibition of the binding of patient samples ([2]; 8 patient samples, p244cyc): 61%
